Values after ≈ are worked out from the molar mass of the structure shown.
Key:
P. aeruginosa PAO1 = assay: In vivo antibacterial efficacy in infected larvae; conditions: P. aeruginosa infected larvae (1.5 × 10^9 CFU/mL); PS9 1000 μg/mL; 48 and 72 h
E. coli [1] = assay: Growth kinetics; assay type: cell-based, Escherichia coli
Description: Bacterial strains were tested as mentioned in Habib et al.. Briefly, ½ MIC, MIC and 2MIC values of PS9 were taken to assess the growth of bacterial strains whereas untreated cells and media were taken as positive and negative control, respectively.

E. coli [2] = assay: Growth inhibition screening (broth dilution); assay type: cell-based, Escherichia coli
Method in brief: (§1)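 NCCLS broth dilution in nutrient broth with compounds from DMSO at a final 250 µg/mL. About 2.5 × 10^5 cells/mL were inoculated and incubated overnight at 37 °C. Growth was measured as turbidity at 590 nm.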

S. aureus [3] = assay: Combination study with AMP or CIP
SH28 = assay: MBC on environmental MDR isolate; conditions: Aeromonas caviae
E. faecalis = assay: Time-kill curve assay; assay type: cell-based, Enterococcus faecalis
Description: (§2) A time–kill curve study was performed against bacterial strains (E. coli, E. faecalis, K. pneumonia and P. aeruginosa) to determine whether compound PS9 is bactericidal or bacteriostatic. MIC, 2MIC and 4MIC concentrations were employed for the time–kill assay as explained by Ali et al.. Untreated bacterial cells were used as a control. 100 µL aliquot was taken from each flask at regular intervals. An aliquot was further diluted in phosphate buffer saline solution and from each concentration 50 µL aliquot was inoculated on a nutrient agar plate and spread. Colonies were counted after the incubation of the plate at 37 °C. For each strain, the average (mean) colony count data (log10 CFU/mL) was plotted against time.

HK1 [4] = assay: MIC on environmental MDR isolate (microdilution)
B. subtilis = assay: Growth inhibition screening (broth dilution); assay type: cell-based, Bacillus subtilis
Method in brief: as §1

HK32 [5] = assay: MIC on environmental MDR isolate (microdilution); conditions: Enterobacter cloacae
S. aureus [6] = assay: Minimum bactericidal concentration; assay type: cell-based, Staphylococcus aureus
E. coli [7] = assay: Time-kill curve assay; assay type: cell-based, Escherichia coli
Description: as §2

LG71 = assay: MIC on environmental MDR isolate (microdilution); conditions: isolate LG71 Enterobacter cloacae
HK91 = assay: MBC on environmental MDR isolate; conditions: Ralstonia
LG1 = assay: MBC on environmental MDR isolate
HK32 [8] = assay: MBC on environmental MDR isolate; conditions: Enterobacter cloacae
HK1 [9] = assay: MBC on environmental MDR isolate
HK41 = assay: MIC on environmental MDR isolate (microdilution); conditions: Enterobacter cloacae
S. aureus [10] = assay: Minimum inhibitory concentration (broth dilution); assay type: cell-based; conditions: Staphylococcus aureus, alone
Cytotoxicity assay (MTT) = assay type: cell-based; conditions: human, HEK293 cells, read-out: viable HEK293 cells
Description: PS9 was tested for cytotoxicity against human embryonic kidney (HEK293) cells using a colorimetric MTT assay. HEK293 cells were grown at 37 °C in a humidified environment of 5% CO2 in DMEM media enriched with 10% FBS and 1% penicillin, streptomycin solution. HEK293 cells (1 × 10^4) were seeded in triplicate and incubated overnight in a CO2 incubator. After the treatment (5–200 μM) with PS9, the cells were kept for 48 h at 37 °C. Freshly prepared 5 mg/mL MTT was supplied to the samples and kept on incubation at 37 °C for 4–5 h. DMSO was added to solubilize the formazan crystals. A microplate reader (Bio-Rad, Hercules, CA, USA) was used for taking absorbance at 570 nm and all the experiments were done in triplicate.

S. aureus 33,591 = assay: In vivo antibacterial efficacy in infected larvae; conditions: PS9 1000 μg/mL 30 min post-infection, up to 72 h

For `O=C1Nc2ccc(F)cc2/C1=N\NC(=O)c1cc(-c2cccc(Br)c2)n[nH]1` [PS9, (E)-3-(3-Bromophenyl)-N′-(5-Fluoro-2-Oxoindolin-3-Ylidene)-1H-Pyrazole-5-Carbohydrazide], the “effect on death of infected larvae” value (P. aeruginosa PAO1) was “small protective effect”, the growth (E. coli [1]; 2MIC and MIC) was “no growth observed up to 24 h” and the “time after inoculation at which log phase was observed” value (E. coli [1]; ½ MIC) was 6 h. For the same compound, the inhibition at 250 µg/mL (E. coli [2]; Escherichia coli) was ≥ 94%, the “% Growth Inhibition at 250 µg/mL” value (E. coli [2]; listed as C00009) was 100% and the “MIC in Combination” value (S. aureus [3]; combination PS9 + AMP) was 4 µg/mL. The “MIC in Combination” value (S. aureus [3]; combination PS9 + CIP) was 8 µg/mL, the FICI (S. aureus [3]; combination with AMP) was 0.37 and the FICI (S. aureus [3]; combination with CIP) was 0.28. For the same compound, the MBC (SH28) was 512 µg/mL (≈ 1200 µM), the “killing (log10 CFU/mL with time)” value (E. faecalis; 4MIC, after 16 h) was “significant eradication” and the “killing (log10 CFU/mL with time)” value (E. faecalis; MIC, till 16 h) was “no 100% eradication”. The MIC (HK1 [4]) was 16 µg/mL (≈ 37.4 µM), the “MIC lower than standard antibiotic AMP” value (HK1 [4]; isolate HK1) was 16 times and the “MIC lower than third-generation drug CTX” value (HK1 [4]; isolate HK1) was 8 times. For the same compound, the inhibition at 250 µg/mL (B. subtilis; Bacillus subtilis) was ≥ 94%, the “% Growth Inhibition at 250 µg/mL” value (B. subtilis; listed as C00009) was 100% and the MIC (HK32 [5]) was 64 µg/mL (≈ 149 µM). The “MBC/MIC Ratio (R*)” value (S. aureus [6]) was 8, the MBC (S. aureus [6]; Staphylococcus aureus) was 256 µg/mL (≈ 598 µM) and the “killing (log10 CFU/mL with time)” value (E. coli [7]; 4MIC, after 16 h) was “significant eradication”. The “killing (log10 CFU/mL with time)” value (E. coli [7]; MIC, till 16 h) was “no 100% eradication”, the MIC (LG71; Enterobacter cloacae) was 1020 µg/mL (≈ 2390 µM) and the MIC (LG71) was >1024 µg/mL. The MBC (HK91) was 16 µg/mL (≈ 37.4 µM), the MBC (LG1) was 128 µg/mL (≈ 299 µM) and the MBC (HK32 [8]) was 64 µg/mL (≈ 149 µM). For the same compound, the MBC (HK1 [9]) was 512 µg/mL (≈ 1200 µM), the MIC (HK41) was 32 µg/mL (≈ 74.7 µM) and the MIC (S. aureus [10]) was 32 µg/mL (≈ 74.7 µM). The viability at 48 h, 100 µg/mL (Cytotoxicity assay (MTT); 100 µg/mL) was > 90%, the viability at 48 h (Cytotoxicity assay (MTT); up to 200 µg/mL) was > 75% and the “effect on death of infected larvae” value (S. aureus 33,591) was “does not delay this”.

From publication PMC9405123, “Design, Synthesis and Mechanistic Studies of Novel Isatin-Pyrazole Hydrazone Conjugates as Selective and Potent Bacterial MetAP Inhibitors” (Antibiotics, 2022)
